Drawing on ChEMBL document CHEMBL4229426, “Synthesis, antitumor activity evaluation and mechanistic study of novel hederacolchiside A1 derivatives bearing an aryl triazole moiety” (Bioorg Med Chem, 2018), this text covers IC50 for 16 compounds.

Common to all, as to assay type: functional, cell-based
Assay [1] relates to A549. Nature of the assay: Antiproliferative activity against human A549 cells after 48 hrs by MTT assay. Conditions: A549, 48 h.
Assay [2] relates to HT-29. Nature of the assay: Antiproliferative activity against human HT-29 cells after 48 hrs by MTT assay. Conditions: HT-29, 48 h.
The test system of assay [3] is PC-3. Nature of the assay: Antiproliferative activity against human PC3 cells after 48 hrs by MTT assay. Conditions: PC-3, 48 h.
Assay [4] deals with U-937. Nature of the assay: Antiproliferative activity against human U937 cells after 48 hrs by MTT assay. Conditions: U-937, 48 h.
Assay [5] relates to HL-60. The assay is described as follows: Antiproliferative activity against human HL60 cells after 48 hrs by MTT assay. Conditions: HL-60, 48 h.
In assay [6] the test system is HepG2. The assay is described as follows: Antiproliferative activity against human HepG2 cells after 48 hrs by MTT assay. Conditions: HepG2, 48 h.

For the compound `COc1cccc(-n2cc(CNC(=O)[C@]34CCC(C)(C)C[C@H]3C3=CC[C@@H]5[C@@]6(C)CC[C@H](O[C@@H]7OC[C@H](O[C@@H]8O[C@H](CO)[C@@H](O)[C@H](O)[C@H]8O)[C@H](O)[C@H]7O[C@@H]7O[C@@H](C)[C@H](O)[C@@H](O)[C@H]7O)C(C)(C)[C@@H]6CC[C@@]5(C)[C@]3(C)CC4)nn2)c1`, the IC50 in assay [1] came out at 2.45 µM; in assay [2], 3.48 µM; in assay [3], 0.23 µM; in assay [4], 5.9 µM; in assay [5] it was 5.66 µM; in assay [6], 1.66 µM.

As for `C[C@@H]1O[C@@H](O[C@H]2[C@H](O[C@H]3CC[C@]4(C)[C@H]5CC=C6[C@@H]7CC(C)(C)CC[C@]7(C(=O)NCc7cn(-c8ccc(C(F)(F)F)cc8)nn7)CC[C@@]6(C)[C@]5(C)CC[C@H]4C3(C)C)OC[C@H](O[C@@H]3O[C@H](CO)[C@@H](O)[C@H](O)[C@H]3O)[C@@H]2O)[C@H](O)[C@H](O)[C@H]1O`, the IC50 in assay [1] stood at 4.9 µM; in assay [2] it was 4.56 µM; in assay [3], 3.98 µM; in assay [4], 0.95 µM; in assay [5] it was 5.23 µM; in assay [6], 2.45 µM.

For the compound `Cc1cccc(-n2cc(CNC(=O)[C@]34CCC(C)(C)C[C@H]3C3=CC[C@@H]5[C@@]6(C)CC[C@H](O[C@@H]7OC[C@H](O[C@@H]8O[C@H](CO)[C@@H](O)[C@H](O)[C@H]8O)[C@H](O)[C@H]7O[C@@H]7O[C@@H](C)[C@H](O)[C@@H](O)[C@H]7O)C(C)(C)[C@@H]6CC[C@@]5(C)[C@]3(C)CC4)nn2)c1`, the IC50 in assay [1] was determined as 0.18 µM; in assay [2], 4.33 µM; in assay [3], 3.93 µM; in assay [4], 3.93 µM; in assay [5], 4.64 µM; in assay [6] it was 3.49 µM.

For the compound `O=c1[nH]cc(F)c(=O)[nH]1` [FLUOROURACIL], the IC50 in assay [1] was determined as 69.1 µM; in assay [2], 22.2 µM; in assay [3] it was 8.45 µM; in assay [4] it was 56.3 µM; in assay [5], 54.5 µM; in assay [6], 59.1 µM.

For the compound `C[C@@H]1O[C@@H](O[C@H]2[C@H](O[C@H]3CC[C@]4(C)[C@H]5CC=C6[C@@H]7CC(C)(C)CC[C@]7(C(=O)NCc7cn(-c8cccnc8)nn7)CC[C@@]6(C)[C@]5(C)CC[C@H]4C3(C)C)OC[C@H](O[C@@H]3O[C@H](CO)[C@@H](O)[C@H](O)[C@H]3O)[C@@H]2O)[C@H](O)[C@H](O)[C@H]1O`, the IC50 is 47.2 µM in assay [1]; 37.8 µM in assay [2]; 41.1 µM in assay [3]; 9.03 µM in assay [4]; 9.94 µM in assay [5]; 20.1 µM in assay [6].

`C[C@@H]1O[C@@H](O[C@H]2[C@H](O[C@H]3CC[C@]4(C)[C@H]5CC=C6[C@@H]7CC(C)(C)CC[C@]7(C(=O)NCc7cn(-c8ccc(Cl)cc8)nn7)CC[C@@]6(C)[C@]5(C)CC[C@H]4C3(C)C)OC[C@H](O[C@@H]3O[C@H](CO)[C@@H](O)[C@H](O)[C@H]3O)[C@@H]2O)[C@H](O)[C@H](O)[C@H]1O`: the IC50 is 1.87 µM in assay [1]; 41 µM in assay [2]; 5.64 µM in assay [3]; 0.94 µM in assay [4]; 4.52 µM in assay [5]; 2.13 µM in assay [6].

As to `C[C@@H]1O[C@@H](O[C@H]2[C@H](O[C@H]3CC[C@]4(C)[C@H]5CC=C6[C@@H]7CC(C)(C)CC[C@]7(C(=O)NCc7cn(-c8ccccc8Cl)nn7)CC[C@@]6(C)[C@]5(C)CC[C@H]4C3(C)C)OC[C@H](O[C@@H]3O[C@H](CO)[C@@H](O)[C@H](O)[C@H]3O)[C@@H]2O)[C@H](O)[C@H](O)[C@H]1O`, the IC50 in assay [1] was determined as 1.81 µM; in assay [2] it was 4.18 µM; in assay [3], 5.28 µM; in assay [4], 1.03 µM; in assay [5], 2.26 µM; in assay [6], 3.92 µM.

For the compound `C[C@@H]1O[C@@H](O[C@H]2[C@H](O[C@H]3CC[C@]4(C)[C@H]5CC=C6[C@@H]7CC(C)(C)CC[C@]7(C(=O)NCc7cn(-c8ccc([N+](=O)[O-])cc8)nn7)CC[C@@]6(C)[C@]5(C)CC[C@H]4C3(C)C)OC[C@H](O[C@@H]3O[C@H](CO)[C@@H](O)[C@H](O)[C@H]3O)[C@@H]2O)[C@H](O)[C@H](O)[C@H]1O`, the IC50 in assay [1] was 3.98 µM; in assay [2] it was 3.04 µM; in assay [3] it was 5.56 µM; in assay [4] it was 6.85 µM; in assay [5], 21.1 µM; in assay [6] it was 26.6 µM.

As for `C[C@@H]1O[C@@H](O[C@H]2[C@H](O[C@H]3CC[C@]4(C)[C@H]5CC=C6[C@@H]7CC(C)(C)CC[C@]7(C(=O)NCc7cn(-c8ccccc8)nn7)CC[C@@]6(C)[C@]5(C)CC[C@H]4C3(C)C)OC[C@H](O[C@@H]3O[C@H](CO)[C@@H](O)[C@H](O)[C@H]3O)[C@@H]2O)[C@H](O)[C@H](O)[C@H]1O`, the IC50 in assay [1] is 3.74 µM; in assay [2], 9.3 µM; in assay [3] it was 45 µM; in assay [4] it was 8.79 µM; in assay [5] it was 18.5 µM; in assay [6] it was 25.8 µM.

As to `CC(=O)c1ccc(-n2cc(CNC(=O)[C@]34CCC(C)(C)C[C@H]3C3=CC[C@@H]5[C@@]6(C)CC[C@H](O[C@@H]7OC[C@H](O[C@@H]8O[C@H](CO)[C@@H](O)[C@H](O)[C@H]8O)[C@H](O)[C@H]7O[C@@H]7O[C@@H](C)[C@H](O)[C@@H](O)[C@H]7O)C(C)(C)[C@@H]6CC[C@@]5(C)[C@]3(C)CC4)nn2)cc1`, the IC50 in assay [1] worked out at 0.28 µM; in assay [2] it was 6.42 µM; in assay [3] it was 46.9 µM; in assay [4] it was 0.78 µM; in assay [5], 4.66 µM; in assay [6], 33 µM.

As for `C[C@@H]1O[C@@H](O[C@H]2[C@H](O[C@H]3CC[C@]4(C)[C@H]5CC=C6[C@@H]7CC(C)(C)CC[C@]7(C(=O)NCc7cn(-c8cccc(Br)c8)nn7)CC[C@@]6(C)[C@]5(C)CC[C@H]4C3(C)C)OC[C@H](O[C@@H]3O[C@H](CO)[C@@H](O)[C@H](O)[C@H]3O)[C@@H]2O)[C@H](O)[C@H](O)[C@H]1O`, the IC50 in assay [1] turned out to be 0.89 µM; in assay [2], 1.77 µM; in assay [3], 0.49 µM; in assay [4], 0.72 µM; in assay [5], 0.99 µM; in assay [6], 7.29 µM.

Regarding `COc1ccc(-n2cc(CNC(=O)[C@]34CCC(C)(C)C[C@H]3C3=CC[C@@H]5[C@@]6(C)CC[C@H](O[C@@H]7OC[C@H](O[C@@H]8O[C@H](CO)[C@@H](O)[C@H](O)[C@H]8O)[C@H](O)[C@H]7O[C@@H]7O[C@@H](C)[C@H](O)[C@@H](O)[C@H]7O)C(C)(C)[C@@H]6CC[C@@]5(C)[C@]3(C)CC4)nn2)cc1`, the IC50 in assay [1] was found to be 4.86 µM; in assay [2], 1.13 µM; in assay [3] it was 0.55 µM; in assay [4], 0.79 µM; in assay [5] it was 2.48 µM; in assay [6] it was 3.58 µM.

On to `C[C@@H]1O[C@@H](O[C@H]2[C@H](O[C@H]3CC[C@]4(C)[C@H]5CC=C6[C@@H]7CC(C)(C)CC[C@]7(C(=O)NCc7cn(-c8ccccc8F)nn7)CC[C@@]6(C)[C@]5(C)CC[C@H]4C3(C)C)OC[C@H](O[C@@H]3O[C@H](CO)[C@@H](O)[C@H](O)[C@H]3O)[C@@H]2O)[C@H](O)[C@H](O)[C@H]1O`, for which the IC50 in assay [1] is 7.09 µM; in assay [2], 30.9 µM; in assay [3], 39.3 µM; in assay [4], 4.51 µM; in assay [5] it was 5.45 µM; in assay [6], 5.39 µM.

As for `C[C@@H]1O[C@@H](O[C@H]2[C@H](O[C@H]3CC[C@]4(C)[C@H]5CC=C6[C@@H]7CC(C)(C)CC[C@]7(C(=O)NCc7cn(-c8cccc(F)c8)nn7)CC[C@@]6(C)[C@]5(C)CC[C@H]4C3(C)C)OC[C@H](O[C@@H]3O[C@H](CO)[C@@H](O)[C@H](O)[C@H]3O)[C@@H]2O)[C@H](O)[C@H](O)[C@H]1O`, the IC50 was 4.25 µM in assay [1]; 2.23 µM in assay [2]; 0.72 µM in assay [3]; 3.12 µM in assay [4]; 1.32 µM in assay [5]; 0.9 µM in assay [6].

`C[C@@H]1O[C@@H](O[C@H]2[C@H](O[C@H]3CC[C@]4(C)[C@H]5CC=C6[C@@H]7CC(C)(C)CC[C@]7(C(=O)NCc7cn(-c8c(Cl)cccc8Cl)nn7)CC[C@@]6(C)[C@]5(C)CC[C@H]4C3(C)C)OC[C@H](O[C@@H]3O[C@H](CO)[C@@H](O)[C@H](O)[C@H]3O)[C@@H]2O)[C@H](O)[C@H](O)[C@H]1O`: the IC50 was 6.68 µM in assay [1]; 37.8 µM in assay [2]; 41.9 µM in assay [3]; 18.4 µM in assay [4]; 28.2 µM in assay [5]; 23 µM in assay [6].

In the case of `Cc1ccccc1-n1cc(CNC(=O)[C@]23CCC(C)(C)C[C@H]2C2=CC[C@@H]4[C@@]5(C)CC[C@H](O[C@@H]6OC[C@H](O[C@@H]7O[C@H](CO)[C@@H](O)[C@H](O)[C@H]7O)[C@H](O)[C@H]6O[C@@H]6O[C@@H](C)[C@H](O)[C@@H](O)[C@H]6O)C(C)(C)[C@@H]5CC[C@@]4(C)[C@]2(C)CC3)nn1`, the IC50 was determined as 4.13 µM in assay [1]; 5.35 µM in assay [2]; 5.03 µM in assay [3]; 4.68 µM in assay [4]; 3.84 µM in assay [5]; 1.51 µM in assay [6].
